Experimental findings from patent US12502386B2, “Nitrogen-containing heterocyclic compound and use thereof” (SHANGHAI SHIJIANG BIOTECHNOLOGY CO., LTD, priority 2022, dated 2025) are described below.

Molecules are shown by their SMILES. Like-named read-outs stand apart in the source and are kept apart here.

What all share (type): cell-based, human
The subject of one experiment is Con-NCI-H82 cell. Nature of the experiment: CellTiter-Glo cell viability, Con-NCI-H82 cell (empty-vector control). The following applies: intracellular ATP, read-out: inhibitory effect on Con-NCI-H82 (IC50). For orientation: Cellular ATP, detected with luciferase, serves as a proxy for viable cell number.
The test system of a further experiment is ov-NNMT NCI-H82 cell. Nature of the experiment: CellTiter-Glo cell viability, ov-NNMT NCI-H82 cell (NNMT overexpressed). The following applies: intracellular ATP, read-out: inhibitory effect on OV-NNMT NCI-H82 (IC50).
Another experiment has as its system sh-DNMT1 NCI-H82 cell. Nature of the experiment: CellTiter-Glo cell viability, sh-DNMT1 NCI-H82 cell (DNMT1 knocked down). The settings on record: intracellular ATP, read-out: inhibitory effect on sh-DNMT1 NCI-H82 (IC50).
Setting [1] is: Homo sapiens, NCI-H82, NCI-H82 transfected with empty virus vector (control).
Where [2] appears, read: Homo sapiens, NCI-H82, NCI-H82 overexpressing NNMT protein.
Where [3] appears, read: Homo sapiens, NCI-H82, NCI-H82 with DNMT1 knocked down by shRNA.

What is called IC50 is the concentration that gives 50% inhibition. With `CCCCCC1c2c(ccc3c2OCO3)C=C2c3cc4c(cc3CCN21)OCO4` (stereo not drawn) [AB36433], the IC50 in the experiment on Con-NCI-H82 cell (setting [1]) worked out at 0.54 µM; in the experiment with ov-NNMT NCI-H82 cell (setting [2]), 1.95 µM; in the experiment on sh-DNMT1 NCI-H82 cell (setting [3]), 3.01 µM.

Regarding `[2H]C1([2H])c2c(ccc(OC)c2OC)C=C2c3cc4c(cc3CCN21)OCO4` [AB36434], the IC50 turned out to be 1.02 µM in the experiment on Con-NCI-H82 cell (setting [1]), 2.56 µM in the experiment on ov-NNMT NCI-H82 cell (setting [2]) and 3.68 µM in the experiment on sh-DNMT1 NCI-H82 cell (setting [3]).

`CC1=C2c3cc4c(cc3CCN2C(C(Cl)(Cl)Cl)c2c1ccc1c2OCO1)OCO4` (stereo not drawn) [AB36442]: the IC50 was 15 µM in the experiment on Con-NCI-H82 cell (setting [1]), 13.3 µM with ov-NNMT NCI-H82 cell (setting [2]) and 14.1 µM with sh-DNMT1 NCI-H82 cell (setting [3]).

On to `COc1ccc2c(c1Cl)CN1CCc3cc4c(cc3C1=C2)OCO4` [AB36450], for which the concentration for half-maximal inhibition (IC50) in the experiment on Con-NCI-H82 cell (setting [1]) stood at 2.08 µM; with ov-NNMT NCI-H82 cell (setting [2]), 5.32 µM; in the experiment with sh-DNMT1 NCI-H82 cell (setting [3]) it was 8.34 µM.

Turning to `COc1ccc2c(c1Br)CN1CCc3cc4c(cc3C1=C2)OCO4` [AB36460], the IC50 with Con-NCI-H82 cell (setting [1]) came out at 1.06 µM; in the experiment on ov-NNMT NCI-H82 cell (setting [2]) it was 3.33 µM; with sh-DNMT1 NCI-H82 cell (setting [3]), 4.58 µM.

As to `COc1ccc2c(c1OC)CN1CCc3cc4c(cc3C1=C2)OCCO4` [AB36463], the IC50 in the experiment on Con-NCI-H82 cell (setting [1]) was 0.92 µM; in the experiment on ov-NNMT NCI-H82 cell (setting [2]) it was 3.44 µM; in the experiment with sh-DNMT1 NCI-H82 cell (setting [3]), 3.24 µM.

On to `COc1ccc2c(c1OC)C(c1ccccc1)N1CCc3cc4c(cc3C1=C2)OCO4` (stereo not drawn) [AB36467], for which the results for the IC50 in the experiment on Con-NCI-H82 cell (setting [1]), in the experiment with ov-NNMT NCI-H82 cell (setting [2]) and in the experiment with sh-DNMT1 NCI-H82 cell (setting [3]) were 3.92 µM, 9.32 µM and 13.1 µM, respectively.

Turning to `COc1ccc2c(c1OC)C(CC(C)=O)N1CCc3cc4c(cc3C1=C2)OCO4` (stereo not drawn) [AB36472], the IC50 in the experiment on Con-NCI-H82 cell (setting [1]) came out at 4.28 µM; in the experiment with ov-NNMT NCI-H82 cell (setting [2]) it was 4.32 µM; in the experiment on sh-DNMT1 NCI-H82 cell (setting [3]) it was 4.11 µM.

Take `COc1c(OCCCCl)ccc2c1C(C1CCCC1)N1CCc3cc4c(cc3C1=C2)OCO4` (stereo not drawn) [AB36474]: the IC50 in the experiment on Con-NCI-H82 cell (setting [1]) amounted to 1.33 µM; with ov-NNMT NCI-H82 cell (setting [2]), 4.12 µM; with sh-DNMT1 NCI-H82 cell (setting [3]) it was 6.08 µM.

As for `[2H]C1([2H])Cc2cc3c(cc2C2=Cc4ccc(OC)c(OC)c4CN21)OCO3` [AB36476], the values for the 50% inhibitory concentration (IC50) in the experiment with Con-NCI-H82 cell (setting [1]), in the experiment on ov-NNMT NCI-H82 cell (setting [2]) and in the experiment with sh-DNMT1 NCI-H82 cell (setting [3]) were 1.24 µM, 4.86 µM and 7.34 µM, respectively.

With `[2H]C1c2c(ccc(OC)c2OC)C=C2c3cc4c(cc3CC([2H])([2H])N21)OCO4` (stereo not drawn) [AB36477], the IC50 amounted to 1.22 µM with Con-NCI-H82 cell (setting [1]), 5.68 µM with ov-NNMT NCI-H82 cell (setting [2]) and 8.82 µM in the experiment on sh-DNMT1 NCI-H82 cell (setting [3]).

For the molecule `COc1ccc2c(c1OC)C(c1ccncc1)N1CCc3cc4c(cc3C1=C2)OCO4` (stereo not drawn) [AB36488], the IC50 with Con-NCI-H82 cell (setting [1]) is 8.23 µM; in the experiment with ov-NNMT NCI-H82 cell (setting [2]), 8.06 µM; with sh-DNMT1 NCI-H82 cell (setting [3]) it was 7.83 µM.

As for `COc1ccc2c(c1N1CCCCCC1)CN1CCc3cc4c(cc3C1=C2)OCO4` [AB36493], the IC50 in the experiment with Con-NCI-H82 cell (setting [1]) stood at 0.29 µM; in the experiment with ov-NNMT NCI-H82 cell (setting [2]), 1.58 µM; in the experiment with sh-DNMT1 NCI-H82 cell (setting [3]) it was 1.98 µM.

For the molecule `COc1ccc2cc3n(c(=O)c2c1OC)CCc1cc2c(cc1-3)OCO2` [AB36496], the IC50 in the experiment with Con-NCI-H82 cell (setting [1]) amounted to 12.9 µM; in the experiment on ov-NNMT NCI-H82 cell (setting [2]), 10.1 µM; in the experiment on sh-DNMT1 NCI-H82 cell (setting [3]), 12.6 µM.

`COc1ccc2c(c1OC)C(C1CCCC1)N1CCc3cc4c(cc3C1=C2)OCO4` (stereo not drawn) [AB36497]: the figures for the IC50 in the experiment with Con-NCI-H82 cell (NCI-H82 transfected with empty virus vector (control)), with ov-NNMT NCI-H82 cell (NCI-H82 overexpressing NNMT protein) and in the experiment on sh-DNMT1 NCI-H82 cell (NCI-H82 with DNMT1 knocked down by shRNA) were 19.9 µM, 18.3 µM and 17 µM, respectively.

As to `[2H]C([2H])([2H])Oc1c(OC)ccc2c1C([2H])(C1CCCC1)N1CCc3cc4c(cc3C1=C2)OCO4` (stereo not drawn) [AB36509], the IC50 in the experiment with Con-NCI-H82 cell (setting [1]) is 0.51 µM; in the experiment with ov-NNMT NCI-H82 cell (setting [2]), 1.68 µM; with sh-DNMT1 NCI-H82 cell (setting [3]), 2.58 µM.

As to `COc1ccc2c(c1OC)C(=C(Cl)Cl)N1CCc3cc4c(cc3C1=C2)OCO4` [AB36512], the IC50 in the experiment on Con-NCI-H82 cell (setting [1]) stood at 4.36 µM; with ov-NNMT NCI-H82 cell (setting [2]) it was 4.08 µM; in the experiment on sh-DNMT1 NCI-H82 cell (setting [3]) it was 3.96 µM.

Turning to `COc1ccc2c(c1OC)C(n1cccc1)N1CCc3cc4c(cc3C1=C2)OCO4` (stereo not drawn) [AB36520], the IC50 was 2.56 µM in the experiment on Con-NCI-H82 cell (setting [1]), 2.42 µM in the experiment with ov-NNMT NCI-H82 cell (setting [2]) and 2.62 µM with sh-DNMT1 NCI-H82 cell (setting [3]).

For `COc1ccc2c(c1OC)C(C1CCCCC1=O)N1CCc3cc4c(cc3C1=C2)OCO4` (stereo not drawn) [AB36525], the IC50 came out at 3.86 µM with Con-NCI-H82 cell (setting [1]), 3.53 µM in the experiment on ov-NNMT NCI-H82 cell (setting [2]) and 3.96 µM with sh-DNMT1 NCI-H82 cell (setting [3]).
